{"source": "patent US9844535B2", "about": "“SHP2 inhibitors and methods of treating autoimmune and/or glomerulonephritis-associated diseases using SHP2 inhibitors” (Indiana University Research and Technology Corporation, priority 2013, dated 2017)", "key": {"ERK and AKT signaling": {"system": "ERK and AKT signaling", "experiment": "Immunoblot of ERK/AKT signaling in tissue lysates of inhibitor-treated MRL/lpr mice", "format": "in vivo, mouse", "settings": "7.5 mg/kg daily for 4 weeks", "description": "Briefly, female MRL/MpJ-fas lpr (MRL/lpr), MRL/Mpj and C57BL/6J mice were purchased from the Jackson Laboratory (Bar Harbor, Me.). For experiments, mice within each group were ip injected with either vehicle (DMSO) or the SHP2 inhibitor (7.5 mg/kg/per day). […] Body weight was measured daily and treatment dosage was adjusted accordingly. At the end of the treatment period, mice were sacrificed with CO2 exsanguination and SLE targeted organs were removed. For each mouse, spleen, kidney, and heart weight were calculated. In addition, total animal body weight and tibia length were measured. Peripheral blood/serum was also collected for use in the cytokine assays described below.\nTissues (spleen, kidney, heart) isolated from either vehicle (DMSO) treated or SHP2 inhibitor treated WT C57/B16, MRL/MpJ, or MRL/lpr female mice were dissected, perfused in PBS, and immediately frozen in liquid N2. Whole-cell lysates were prepared by homogenizing the tissue in radioimmunoprecipitation (RIPA) buffer (25 mmol/l Tris-HCl [pH 7.4], 150 mmol/l NaCl, 0.1% SDS, 1% NP-40, 0.5% sodium deoxycholate, 5 mmol/l EDTA, 1 mmol/l NaF, 1 mmol/l sodium orthovanadate, and a protease cocktail) at 4° C., followed by clarification at 14,000 g. […] Bands were visualized with enhanced chemiluminescence and quantified by densitometry (developed by Wayne Rasband; ImageJ 1.41 software, http://rsbweb.nih.gov/ij/). […]"}, "SLE-prone mice hearts": {"system": "SLE-prone mice hearts", "experiment": "Echocardiography", "format": "in vivo, mouse", "settings": "vs vehicle-treated SLE mice", "description": "Transthoracic echocardiography was conducted on non-anesthetized animals as described previously in Marin et al., J Clin Invest. 2011; 121:1026-1043, with a 13-MHz probe (Vivid 7, GE Medical Systems, Boston, Mass.) or VisualSonics Vevo 770 high-frequency ultrasound rodent imaging system (VisualSonics, Toronto, Ontario). GE Medical Systems or VisualSonics Vevo 770 software was used for data acquisition and subsequent analysis. Hearts were imaged in the 2-dimensional parasternal short-axis view, and an M-mode echocardiogram of the midventricular region was recorded at the level of the papillary muscles. Calculations of cardiac anatomic and functional parameters were carried out as described in Marin et al., J Clin Invest. 2011; 121:1026-1043."}, "[1]": {"system": "human T cells isolated from SLE patients", "experiment": "Cultured human SLE T cells: IFNγ secretion, proliferation, viability", "format": "cell-based", "description": "All SLE human cells in the following Examples were isolated from SLE patients diagnosed according to the American College of Rheumatology classification criteria and recruited from the Division of Rheumatology at Beth Israel Deaconess Medical Center, Boston, Mass. under IRB protocol 2006-P-0298. Healthy gender- and age-matched control cells were also used for the Examples herein. Briefly, peripheral venous blood was collected in heparin-lithium tubes and peripheral blood mononuclear cells were prepared with ficoll-Paque centrifugation, as previously described in Grammatikos et al., Clin Immunol. 2014; 150: 192-200.\nHuman T cells were purified from frozen peripheral blood mononuclear cells (PBMC) isolated from SLE or normal donor patients. Briefly, frozen PBMCs were thawed in a 37° C. water bath for 1 to 2 minutes, and then gently added to pre-warmed RPMI1640 medium with 10% FBS (total 10 ml). The cells were centrifuged at 2000 rpm for 5 minutes at room temperature. The cell pellet was washed with 5 ml of pre-warmed RPMI 1640 medium with 10% FBS three times, followed by a final D-PBS (no calcium, no magnesium buffer) wash. Human T cells were then purified by a Pan T Cell Isolation Kit (human) from Miltenyi Biotec, as described above.\nThe purity of isolated T cells routinely exceeded 94%. After purification, T cells were resuspended in RPMI1640 medium with 10% FBS and 1×10^5 cells/well in 100 ul total volume was loaded onto a 96-well plate, either left uncoated or precoated with anti-CD3 antibody (1 ug/ml) (OKT3; Biolegend). […]\nFor cell viability, an MTT (thiazolyl Blue tetrazolium Bromide, M2128, Sigma, St. Louis, Mo.) assay was employed. […] Spectrophotometric absorbance of the samples was assessed using a microplate reader at a wavelength of 595 nm. T cell numbers/proliferation was assessed by cell count using a hemocytometer. […] After mixing, 10 μl of the mixture was loaded onto the hemocytometer and the total average number of cells/well was calculated. […]"}}, "data": [{"molecule": "Cn1c(-c2cccc(NC(=O)C(=O)Nc3ccc(-c4ccsc4)cc3)c2)c(I)c2cc(C(=O)O)c(O)cc21", "note": "[11a-1]", "values": [{"measurement": "downstream ERK and AKT signaling in tissue lysates", "setting": "ERK and AKT signaling", "value": "reversed aberrant downstream ERK and AKT signaling"}, {"measurement": "cardiac functional parameters", "setting": "SLE-prone mice hearts", "value": "significantly improved functional parameters"}, {"measurement": "left ventricular chamber dimension", "setting": "SLE-prone mice hearts", "value": "decreased chamber"}, {"measurement": "posterior wall thickness", "setting": "SLE-prone mice hearts", "value": "increased posterior wall measurements"}, {"measurement": "T cell viability", "setting": "[1]; human SLE T cell cultures", "value": "no differences in viability"}, {"measurement": "T cell proliferation in response to CD3", "setting": "[1]; human SLE T cells, 48 hours, 10 μg/ml", "value": "reduced T cell proliferation"}, {"measurement": "secretion of IFNγ in response to T cell activation", "setting": "[1]; human SLE T cells, CD3 antibody, 48 hours, 10 μg/ml", "value": "significantly decreased the secretion of IFNγ activity"}]}]}
